Measured values from paper PMC4413051, “Glutamate 338 is an electrostatic facilitator of C–Co bond breakage in a dynamic/electrostatic model of catalysis by ornithine aminomutase” (The Febs Journal, 2015).

Key:
[1] = biological target: T1, ornithine 4,5-aminomutase (OAM) (Acetoanaerobium sticklandii, UniProt E3PY95, E335Q); experiment: biochemical
T1 construct: gene oraE

[2] = biological target: T2, ornithine 4,5-aminomutase (OAM) (Acetoanaerobium sticklandii, UniProt E3PY95, E335A); experiment: biochemical
T2 construct: gene oraE

[3] = biological target: T3, ornithine 4,5-aminomutase (OAM) (Acetoanaerobium sticklandii, UniProt E3PY95); experiment: anaerobic coupled DAPDH assay, NADH at […] nm; assay type: biochemical; details: read-out: Ki(DAB)
T3 construct: gene oraE; recombinant, expressed from pET-OAMH2 vector and purified; holoenzyme with PLP and AdoCbl; Glu338 (TIM barrel) and Lys629 lie in OraE
T3 sequence (E3PY95 1-740): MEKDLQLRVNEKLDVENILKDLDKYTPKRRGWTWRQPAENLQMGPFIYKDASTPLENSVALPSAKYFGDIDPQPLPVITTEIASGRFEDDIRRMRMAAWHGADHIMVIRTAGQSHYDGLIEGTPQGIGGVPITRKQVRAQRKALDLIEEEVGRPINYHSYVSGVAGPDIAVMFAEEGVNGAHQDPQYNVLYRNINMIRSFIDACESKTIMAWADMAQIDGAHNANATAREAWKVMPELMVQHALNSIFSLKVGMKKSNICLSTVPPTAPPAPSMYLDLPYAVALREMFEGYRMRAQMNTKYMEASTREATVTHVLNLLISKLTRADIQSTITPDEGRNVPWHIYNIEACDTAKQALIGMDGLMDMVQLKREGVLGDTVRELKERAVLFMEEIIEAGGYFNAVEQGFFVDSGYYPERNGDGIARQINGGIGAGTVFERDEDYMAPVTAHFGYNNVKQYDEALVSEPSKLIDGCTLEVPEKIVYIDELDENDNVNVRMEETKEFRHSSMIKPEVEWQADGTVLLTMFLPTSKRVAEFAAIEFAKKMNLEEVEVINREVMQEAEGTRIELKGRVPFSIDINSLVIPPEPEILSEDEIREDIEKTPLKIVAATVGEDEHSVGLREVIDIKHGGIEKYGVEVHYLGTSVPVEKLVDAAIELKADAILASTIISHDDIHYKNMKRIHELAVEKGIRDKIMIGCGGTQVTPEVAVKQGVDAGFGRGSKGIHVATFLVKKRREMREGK
T3 sequence (E3PY96 1-121 partner): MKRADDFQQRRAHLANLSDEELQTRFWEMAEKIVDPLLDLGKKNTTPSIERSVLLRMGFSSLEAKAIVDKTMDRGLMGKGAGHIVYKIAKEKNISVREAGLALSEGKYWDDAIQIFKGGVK

[4] = biological target: T4, ornithine 4,5-aminomutase (OAM) (Acetoanaerobium sticklandii, UniProt E3PY95, E335D); experiment: biochemical
T4 construct: gene oraE

NCCC(N)C(=O)O (racemic) [D,L-2,4-diaminobutyric acid]
Ki [1]: 11.2 ± 0.1 µM
Ki [2]: 18.8 ± 2.2 µM
Ki [3]: 5.2 ± 0.1 µM
Ki [4]: 15.2 ± 1.5 µM
